Test results: patent US12325694B2, “Co-crystalline form of efinaconazole and method for preparing the same” (Daebong Ls Co., Ltd., priority 2019, dated 2025)

Experiment: Stability test: HPLC purity after standing in solution at different temperatures
Type: physicochemical
Details: Solution (10%)
Protocol: The stabilities of the co-crystals of efinaconazole to temperature and a solution were evaluated and compared by the following experimental method.

C=C1CCN([C@H](C)[C@](O)(Cn2cncn2)c2ccc(F)cc2F)CC1 [Efinaconazole, efinaconazole]
HPLC (%) (65 °C (oven), after 1 week): 99.55%
Related substances (%) (65 °C (oven), after 1 week): 0.45%
HPLC (%) (65 °C (oven), after 2 weeks): 99.46%
Related substances (%) (65 °C (oven), after 2 weeks): 0.54%
HPLC (%) (65 °C (oven), after 4 weeks): 98.47%
Related substances (%) (65 °C (oven), after 4 weeks): 1.53%
HPLC (%) (room temp., after 1 week): 99.73%
Related substances (%) (room temp., after 1 week): 0.27%
HPLC (%) (room temp., after 2 weeks): 99.61%
Related substances (%) (room temp., after 2 weeks): 0.39%
HPLC (%) (room temp., after 4 weeks): 99.60%
Related substances (%) (room temp., after 4 weeks): 0.40%
